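Compound exposure: 48 hours, 5 concentrations, 96-well plates. The concentration for 50% growth inhibition is given as GI50. TGI denotes the concentration required for complete inhibition of growth.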
Assays:
Assay in all cases: NCI tumour cell line growth inhibition, 48 h
[1] = tested on: SK-MEL-28 melanoma
[2] = tested on: SF-268 CNS
[3] = tested on: SF-295 CNS
[4] = tested on: SNB-19 CNS
[5] = tested on: 786-0 renal
[6] = tested on: UACC-62 melanoma
[7] = tested on: PC-3 prostate
[8] = tested on: HOP-92 NSCLC
[9] = tested on: HL-60(TB) leukemia
[10] = tested on: RXF 393 renal
[11] = tested on: HT29 colon
[12] = tested on: NCI-H460 lung
[13] = tested on: SK-OV-3 ovarian
[14] = tested on: LOX IMVI melanoma
[15] = tested on: BT-549 breast
[16] = tested on: SW-620 colon
[17] = tested on: OVCAR-3 ovarian
[18] = tested on: NCI-H23 lung
[19] = tested on: HCC-2998 colon
[20] = tested on: SR leukemia
[21] = tested on: IGROV1 ovarian
[22] = tested on: UO-31 renal
[23] = tested on: MCF7 breast
[24] = tested on: CCRF-CEM leukemia
[25] = tested on: A498 renal
[26] = tested on: MDA-MB-231 breast
[27] = tested on: HCT-116 colon
[28] = tested on: U251 CNS
[29] = tested on: EKVX NSCLC
[30] = tested on: NCI-H522 lung
[31] = tested on: M14 melanoma
[32] = tested on: HCT-15 colon
[33] = tested on: SNB-75 CNS
[34] = tested on: HOP-62 NSCLC
[35] = tested on: SK-MEL-5 melanoma
[36] = tested on: NCI-H226 lung
[37] = tested on: SK-MEL-2 melanoma
[38] = tested on: OVCAR-4 ovarian
[39] = tested on: A549 NSCLC
[40] = tested on: SN12C renal
[41] = tested on: SF-539 CNS
[42] = tested on: ACHN renal
[43] = tested on: OVCAR-5 ovarian
[44] = tested on: KM12 colon
[45] = tested on: NCI/ADR-RES ovarian
[46] = tested on: HS 578T breast
[47] = tested on: OVCAR-8 ovarian
[48] = tested on: TK-10 renal
[49] = tested on: MOLT-4 leukemia
[50] = tested on: DU-145 prostate
[51] = tested on: T-47D breast
[52] = tested on: MDA-MB-435
[53] = tested on: MALME-3M melanoma
[54] = tested on: RPMI-8226 leukemia
[55] = tested on: K-562 leukemia
[56] = tested on: COLO 205 colon
[57] = tested on: UACC-257 melanoma
[58] = tested on: CAKI-1 renal

## CCOC(=O)c1cc(C(=O)c2cc(OC)cc(OC)c2)n2nc(C)ccc12
[1]
  GI50: > 100 µM
  TGI: > 100 µM
[2]
  GI50: 0.676 µM
  TGI: > 100 µM
[3]
  GI50: 0.311 µM
  TGI: 38.3 µM
[4]
  GI50: 0.752 µM
  TGI: > 100 µM
[5]
  GI50: 0.523 µM
  TGI: > 100 µM
[6]
  GI50: 0.477 µM
  TGI: > 100 µM
[7]
  GI50: 0.317 µM
  TGI: > 100 µM
[8]
  GI50: 0.446 µM
  TGI: > 100 µM
[9]
  GI50: 0.248 µM
  TGI: 0.797 µM
[10]
  GI50: 0.239 µM
  TGI: 3.16 µM
[11]
  GI50: 0.401 µM
  TGI: > 100 µM
[12]
  GI50: 0.365 µM
  TGI: > 100 µM
[13]
  GI50: 0.878 µM
  TGI: > 100 µM
[14]
  GI50: 0.493 µM
  TGI: > 100 µM
[15]
  GI50: 1.99 µM
  TGI: > 100 µM
[16]
  GI50: 0.28 µM
  TGI: > 100 µM
[17]
  GI50: 0.289 µM
  TGI: 2.11 µM
[18]
  GI50: 1.29 µM
  TGI: > 100 µM
[19]
  GI50: 3.34 µM
  TGI: > 100 µM
[20]
  GI50: 0.0759 µM
  TGI: > 100 µM
[21]
  GI50: 0.943 µM
  TGI: > 100 µM
[22]
  GI50: 0.698 µM
  TGI: > 100 µM
[23]
  GI50: 0.313 µM
  TGI: > 100 µM
[24]
  GI50: 0.348 µM
  TGI: > 100 µM
[25]
  GI50: 0.388 µM
  TGI: > 100 µM
[26]
  GI50: 1.7 µM
  TGI: > 100 µM
[27]
  GI50: 0.331 µM
  TGI: > 100 µM
[28]
  GI50: 0.549 µM
  TGI: > 100 µM
[29]
  GI50: 0.975 µM
  TGI: > 100 µM
[30]
  GI50: 0.303 µM
  TGI: > 100 µM
[31]
  GI50: 0.251 µM
  TGI: > 100 µM
[32]
  GI50: 0.28 µM
  TGI: > 100 µM
[33]
  GI50: 0.384 µM
  TGI: > 100 µM
[34]
  GI50: 0.691 µM
  TGI: > 100 µM
[35]
  GI50: 0.276 µM
  TGI: > 100 µM
[36]
  GI50: > 100 µM
  TGI: > 100 µM
[37]
  GI50: 0.494 µM
  TGI: > 100 µM
[38]
  GI50: 1.45 µM
  TGI: > 100 µM
[39]
  GI50: 0.766 µM
  TGI: > 100 µM
[40]
  GI50: 0.692 µM
  TGI: > 100 µM
[41]
  GI50: 0.349 µM
  TGI: 3.02 µM
[42]
  GI50: 0.731 µM
  TGI: > 100 µM
[43]
  GI50: 2.7 µM
  TGI: > 100 µM
[44]
  GI50: 0.254 µM
  TGI: > 100 µM
[45]
  GI50: 0.308 µM
  TGI: 14.8 µM
[46]
  GI50: 0.284 µM
  TGI: > 100 µM
[47]
  GI50: 1.09 µM
  TGI: > 100 µM
[48]
  GI50: > 100 µM
  TGI: > 100 µM
[49]
  GI50: 0.527 µM
  TGI: > 100 µM
[50]
  GI50: 0.906 µM
  TGI: > 100 µM
[51]
  GI50: 0.501 µM
  TGI: > 100 µM

## CC(c1ccccc1)N1C(=O)CSC1=S (stereo not given)
[1]
  GI50: 3.52 µM
  TGI: 54.1 µM
[2]
  GI50: 1.01 µM
  TGI: 45.7 µM
[3]
  GI50: 2.86 µM
[4]
  GI50: 0.302 µM
  TGI: 1.1 µM
[5]
  GI50: 0.628 µM
  TGI: > 100 µM
[6]
  GI50: 0.33 µM
  TGI: 10.7 µM
[52]
  GI50: 0.319 µM
  TGI: 7.21 µM
[7]
  GI50: 0.989 µM
  TGI: > 100 µM
[8]
  GI50: 4.29 µM
  TGI: > 100 µM
[9]
  GI50: 0.14 µM
  TGI: 1.45 µM
[10]
  GI50: 0.747 µM
  TGI: 6.27 µM
[11]
  GI50: 0.362 µM
[12]
  GI50: 0.97 µM
[13]
  GI50: 2.39 µM
  TGI: > 81.8 µM
[14]
  GI50: 0.446 µM
  TGI: 19.5 µM
[15]
  GI50: 2.46 µM
  TGI: 36 µM
[53]
  GI50: 7.39 µM
  TGI: > 100 µM
[16]
  GI50: 0.418 µM
  TGI: > 38.5 µM
[17]
  GI50: 0.232 µM
  TGI: 1.23 µM
[18]
  GI50: 6.82 µM
  TGI: > 46 µM
[19]
  GI50: 3.08 µM
  TGI: 8.86 µM
[20]
  GI50: 0.109 µM
  TGI: > 100 µM
[21]
  GI50: 0.129 µM
  TGI: 0.697 µM
[22]
  GI50: 5.73 µM
  TGI: > 83.5 µM
[23]
  GI50: 0.0583 µM
  TGI: 13.7 µM
[24]
  GI50: 0.941 µM
  TGI: > 100 µM
[25]
  GI50: 7.32 µM
  TGI: 55.3 µM
[26]
  GI50: 0.463 µM
  TGI: > 23.8 µM
[27]
  GI50: 0.137 µM
  TGI: 1.38 µM
[54]
  GI50: 0.382 µM
  TGI: 34.2 µM
[28]
  GI50: 0.4 µM
  TGI: 16.5 µM
[29]
  GI50: 7.57 µM
  TGI: > 100 µM
[55]
  GI50: 0.346 µM
  TGI: > 100 µM
[30]
  GI50: 0.114 µM
  TGI: 3.81 µM
[31]
  GI50: 0.332 µM
  TGI: 2.99 µM
[32]
  GI50: 0.659 µM
  TGI: > 100 µM
[33]
  GI50: 2.89 µM
  TGI: > 22.2 µM
[34]
  GI50: 0.526 µM
  TGI: 14.4 µM
[35]
  GI50: 1.86 µM
  TGI: 9.83 µM
[36]
  GI50: 3.56 µM
  TGI: > 100 µM
[56]
  GI50: 0.3 µM
  TGI: 1.08 µM
[37]
  GI50: 0.604 µM
  TGI: 12.4 µM
[38]
  GI50: 1.36 µM
  TGI: > 100 µM
[39]
  GI50: 4.67 µM
  TGI: > 59.1 µM
[57]
  GI50: 3.22 µM
  TGI: 33.8 µM
[40]
  GI50: 0.701 µM
  TGI: > 100 µM
[41]
  GI50: 0.228 µM
[42]
  GI50: 3.61 µM
  TGI: > 100 µM
[43]
  GI50: 4.05 µM
  TGI: 49.4 µM
[44]
  GI50: 0.0495 µM
  TGI: 0.438 µM
[46]
  GI50: 0.779 µM
[47]
  GI50: 2 µM
  TGI: > 100 µM
[58]
  GI50: 1.33 µM
[48]
  GI50: 8.78 µM
  TGI: > 93.3 µM
[49]
  GI50: 1.75 µM
  TGI: > 100 µM
[50]
  GI50: 0.379 µM
  TGI: 3.66 µM
[51]
  GI50: 4.1 µM
  TGI: 70.6 µM

Reference: PubChem BioAssay (NCI)
